We go through 20 molecules from patent publication US10849881B2, “Octahydro-cyclobuta[1,2-c;3,4-c′]dipyrrol-2-yl” (Hoffmann-La Roche Inc., priority 2013, dated 2020).

This experiment addresses ATX (human His-tagged) (Homo sapiens (Human), UniProt Q13822). The experiment is described as follows: Human ATX enzyme inhibition assay (fluorescence quenching, MR121 substrate). The class given is biochemical. Conditions: 30 nM ATX, 1 μM MR121 substrate, 30° C., pH 8.0. Here is the method:
Human ATX Enzyme Inhibition Assay
ATX inhibition was measured by a fluorescence quenching assay using a specifically labeled substrate analogue (MR121 substrate). To obtain this MR121 substrate, BOC and TBS protected 6-amino-hexanoic acid (R)-3-({2-[3-(2-{2-[2-(2-amino-ethoxy)-ethoxy]-ethoxy}-ethoxy)-propionylamino]-ethoxy}-hydroxy-phosphoryloxy)-2-hydroxy-propyl ester (Ferguson et al., Org Lett 2006, 8 (10), 2023) was labeled with MR121 fluorophore (CAS 185308-24-1, 1-(3-carboxypropyl)-11-ethyl-1,2,3,4,8,9,10,11-octahydro-dipyrido[3,2-b:2′,3′-i]phenoxazin-13-ium) on the free amine of the ethanolamine side and then, after deprotection, subsequently with tryptophan on the side of the aminohexanoic acid.
Assay working solutions were made as follows:
Assay buffer (50 mM Tris-HCl, 140 mM NaCl, 5 mM KCl, 1 mM CaCl2, 1 mM MgCl2, 0.01% Triton-X-100, pH 8.0;
ATX solution: ATX (human His-tagged) stock solution (1.08 mg/mL in 20 mM bicine, pH 8.5, 0.15 M NaCl, 10% glycerol, 0.3% CHAPS, 0.02% NaN3), diluted to 1.4-2.5× final concentration in assay buffer;
MR121 substrate solution: MR121 substrate stock solution (800 μM MR121 substrate in DMSO), diluted to 2-5× final concentration in assay buffer.
Test compounds (10 mM stock in DMSO, 8 μL) were obtained in 384 well sample plates (Corning Costar #3655) and diluted with 8 μL DMSO. Row-wise serial dilutions were made by transferring 8 μL cpd solution to the next row up to row O. The compound and control solutions were mixed five times and 2 μL were transferred to 384 well assay plates (Corning Costar #3702). Then, 15 μL of 41.7 nM ATX solution was added (30 nM final concentration), mixed five times and then incubated for 15 minutes at 30° C. 10 μL of MR121 substrate solution was added (1 μM final concentration), mixed 30 times and then incubated for 15 minutes at 30′C.
`O=C(c1ccc2cc(Cl)ccc2c1)N1C[C@@H]2[C@H](C1)[C@H]1CN(C(=O)c3ccc4[nH]nnc4c3)C[C@@H]21` [Example 1, [(3aS,3bS,6aR,6bR)-5-(1H-Benzotriazole-5-carbonyl)-octahydro-cyclobuta[1,2-c;3,4-c′]dipyrrol-2-yl]-(6-chloro-naphthalen-2-yl)-methanone] registered a 50% inhibitory concentration (IC50) of 0.034 µM. Under `O=C(CCc1ccc(OC(F)(F)F)cc1)N1C[C@@H]2[C@H](C1)[C@H]1CN(C(=O)c3ccc4[nH]nnc4c3)C[C@@H]21` [Example 1.001, 1-[(3aS,3bR,6aS,6bR)-5-(1H-benzotriazole-5-carbonyl)-octahydro-cyclobuta[1,2-c;3,4-c′]dipyrrol-2-yl]-3-(4-trifluoromethoxy-phenyl)-propan-1-one] stands 0.011 µM.

As for `O=C(c1ccc(-c2ccc(F)cc2)cc1)N1C[C@@H]2[C@H](C1)[C@H]1CN(C(=O)c3ccc4[nH]nnc4c3)C[C@@H]21` [Example 1.002, [(3aS,3bS,6aR,6bR)-5-(1H-benzotriazole-5-carbonyl)-octahydro-cyclobuta[1,2-c;3,4-c′]dipyrrol-2-yl]-(4′-fluoro-biphenyl-4-yl)-methanone], the half-maximal inhibitory concentration (IC50) was found to be 0.064 µM. Molecule `O=C(/C=C/c1ccc(OC(F)(F)F)cc1)N1C[C@@H]2[C@H](C1)[C@H]1CN(C(=O)c3ccc4[nH]nnc4c3)C[C@@H]21` [Example 1.003, (E)-1-[(3aS,3bR,6aS,6bR)-5-(1H-benzotriazole-5-carbonyl)-octahydro-cyclobuta[1,2-c;3,4-c′]dipyrrol-2-yl]-3-(4-trifluoromethoxy-phenyl)-propenone] yielded a half-inhibitory concentration (IC50) of 0.0085 µM. The molecule `COc1ccc2cc(C(=O)N3C[C@@H]4[C@H](C3)[C@H]3CN(C(=O)c5ccc6[nH]nnc6c5)C[C@@H]43)ccc2c1` [Example 1.005, [(3aS,3bS,6aR,6bR)-5-(1H-benzotriazole-5-carbonyl)-octahydro-cyclobuta[1,2-c;3,4-c′]dipyrrol-2-yl]-(6-methoxy-naphthalen-2-yl)-methanone] registered an IC50 of 0.12 µM.

With `O=C(/C=C/c1ccc(OC(F)(F)F)cc1)N1C[C@@H]2[C@H](C1)[C@H]1CN(C(=O)[C@@H]3CCc4[nH]nnc4C3)C[C@@H]21` [Example 1.006, (E)-1-[(3aS,3bS,6aR,6bR)-5-((R)-4,5,6,7-tetrahydro-1H-benzotriazole-5-carbonyl)-octahydro-cyclobuta[1,2-c;3,4-c′]dipyrrol-2-yl]-3-(4-trifluoromethoxy-phenyl)-propenone], 0.008 µM corresponded to half-maximal inhibition (IC50). The value for `N#Cc1ccc2cc(C(=O)N3C[C@@H]4[C@H](C3)[C@H]3CN(C(=O)c5ccc6[nH]nnc6c5)C[C@@H]43)ccc2c1` [Example 1.007, 6-[(3aS,3bS,6aR,6bR)-5-(1H-benzotriazole-5-carbonyl)-octahydro-cyclobuta[1,2-c;3,4-c′]dipyrrole-2-carbonyl]-naphthalene-2-carbonitrile] was 0.062 µM; that for `O=C(COc1ccc(OC(F)(F)F)cc1)N1C[C@@H]2[C@H](C1)[C@H]1CN(C(=O)c3ccc4[nH]nnc4c3)C[C@@H]21` [Example 1.008, 1-[(3aR,3bS,6aR,6bS)-5-(1H-benzotriazole-5-carbonyl)-octahydro-cyclobuta[1,2-c;3,4-c′]dipyrrol-2-yl]-2-(4-trifluoromethoxy-phenoxy)-ethanone] was 0.036 µM. The value for `CC(C)c1ccccc1OCC(=O)N1C[C@@H]2[C@H](C1)[C@H]1CN(C(=O)c3ccc4[nH]nnc4c3)C[C@@H]21` [Example 1.009, 1-[(3aR,3bS,6aR,6bS)-5-(1H-benzotriazole-5-carbonyl)-octahydro-cyclobuta[1,2-c;3,4-c′]dipyrrol-2-yl]-2-(2-isopropyl-phenoxy)-ethanone] was 0.008 µM.

As for `O=C(c1ccc2[nH]nnc2c1)N1C[C@@H]2[C@H](C1)[C@H]1CN(C(=O)c3cc4cc(OC(F)(F)F)ccc4[nH]3)C[C@@H]21` [Example 1.010, [(3aR,3bS,6aR,6bS)-5-(1H-benzotriazole-5-carbonyl)-octahydro-cyclobuta[1,2-c;3,4-c′]dipyrrol-2-yl]-(5-trifluoromethoxy-1H-indol-2-yl)-methanone], the IC50 was found to be 0.016 µM.

With `O=C(c1ccc2[nH]nnc2c1)N1C[C@@H]2[C@H](C1)[C@H]1CN(C(=O)c3cc4ccc(OC(F)(F)F)cc4[nH]3)C[C@@H]21` [Example 1.011, [(3aR,3bS,6aR,6bS)-5-(1H-benzotriazole-5-carbonyl)-octahydro-cyclobuta[1,2-c;3,4-c′]dipyrrol-2-yl]-(6-trifluoromethoxy-1H-indol-2-yl)-methanone], the IC50 was 0.008 µM.

Consider `O=C(c1ccc2ccccc2c1)N1C[C@@H]2[C@H](C1)[C@H]1CN(C(=O)c3ccc4[nH]nnc4c3)C[C@@H]21` [Example 1.012, [(3aS,3bS,6aR,6bR)-5-(1H-benzotriazole-5-carbonyl)-octahydro-cyclobuta[1,2-c;3,4-c′]dipyrrol-2-yl]-naphthalen-2-yl-methanone], for which the IC50 came out at 0.086 µM. Take `Cc1ccc2cc(C(=O)N3C[C@@H]4[C@H](C3)[C@H]3CN(C(=O)c5ccc6[nH]nnc6c5)C[C@@H]43)ccc2c1` [Example 1.013, [(3aS,3bS,6aR,6bR)-5-(1H-benzotriazole-5-carbonyl)-octahydro-cyclobuta[1,2-c;3,4-c′]dipyrrol-2-yl]-(6-methyl-naphthalen-2-yl)-methanone]: the IC50 turned out to be 0.054 µM.

Regarding `Cc1ccc2ccc(C(=O)N3C[C@@H]4[C@H](C3)[C@H]3CN(C(=O)c5ccc6[nH]nnc6c5)C[C@@H]43)cc2c1` [Example 1.014, [(3aS,3bS,6aR,6bR)-5-(1H-benzotriazole-5-carbonyl)-octahydro-cyclobuta[1,2-c;3,4-c′]dipyrrol-2-yl]-(7-methyl-naphthalen-2-yl)-methanone], half-maximal inhibition (IC50) was put at 0.045 µM. Under `O=C(c1ccc2cc(-c3ccccc3)ccc2c1)N1C[C@@H]2[C@H](C1)[C@H]1CN(C(=O)c3ccc4[nH]nnc4c3)C[C@@H]21` [Example 1.015, [(3aS,3bS,6aR,6bR)-5-(1H-benzotriazole-5-carbonyl)-octahydro-cyclobuta[1,2-c;3,4-c′]dipyrrol-2-yl]-(6-phenyl-naphthalen-2-yl)-methanone] stands 0.011 µM; under `O=C(c1ccc2cc(Br)ccc2c1)N1C[C@@H]2[C@H](C1)[C@H]1CN(C(=O)[C@@H]3CCc4[nH]nnc4C3)C[C@@H]21` [Example 1.016, (6-bromo-naphthalen-2-yl)-[(3aR,3bS,6aR,6bS)-5-((R)-4,5,6,7-tetrahydro-1H-benzotriazole-5-carbonyl)-octahydro-cyclobuta[1,2-c;3,4-c′]dipyrrol-2-yl]-methanone], 0.017 µM.

`O=C(c1ccc(-c2ccc(Cl)cc2)cc1)N1C[C@@H]2[C@H](C1)[C@H]1CN(C(=O)c3ccc4[nH]nnc4c3)C[C@@H]21` [Example 1.017, [(3aS,3bS,6aR,6bR)-5-(1H-benzotriazole-5-carbonyl)-octahydro-cyclobuta[1,2-c;3,4-c′]dipyrrol-2-yl]-(4′-chloro-biphenyl-4-yl)-methanone] yielded a half-maximal inhibitory concentration (IC50) of 0.008 µM. On to `O=C(c1ccc(-c2ccc(Cl)cc2)cc1)N1C[C@@H]2[C@H](C1)[C@H]1CN(C(=O)[C@@H]3CCc4[nH]nnc4C3)C[C@@H]21` [Example 1.018, (4′-chloro-biphenyl-4-yl)-[(3aR,3bS,6aR,6bS)-5-((R)-4,5,6,7-tetrahydro-1H-benzotriazole-5-carbonyl)-octahydro-cyclobuta[1,2-c;3,4-c′]dipyrrol-2-yl]-methanone], for which the IC50 came to 0.016 µM. With `O=C(c1cc2cc(OC(F)(F)F)ccc2[nH]1)N1C[C@@H]2[C@H](C1)[C@H]1CN(C(=O)[C@@H]3CCc4[nH]nnc4C3)C[C@@H]21` [Example 1.019, [(3aR,3bS,6aR,6bS)-5-((R)-4,5,6,7-tetrahydro-1H-benzotriazole-5-carbonyl)-octahydro-cyclobuta[1,2-c;3,4-c′]dipyrrol-2-yl]-(5-trifluoromethoxy-1H-indol-2-yl)-methanone], the concentration for half-maximal inhibition (IC50) turned out to be 0.0115 µM. The value for `O=C(c1cc2ccc(OC(F)(F)F)cc2[nH]1)N1C[C@@H]2[C@H](C1)[C@H]1CN(C(=O)[C@@H]3CCc4[nH]nnc4C3)C[C@@H]21` [Example 1.020, [(3aR,3bS,6aR,6bS)-5-((R)-4,5,6,7-tetrahydro-1H-benzotriazole-5-carbonyl)-octahydro-cyclobuta[1,2-c;3,4-c′]dipyrrol-2-yl]-(6-trifluoromethoxy-1H-indol-2-yl)-methanone] was 0.006 µM.

As usually defined, the IC50 is the concentration that gives 50% inhibition.
